Measurements published in patent publication US20240390317A1, “COMBINATION TREATMENT AND/OR PREVENTION OF CARDIAC DISEASES IN NON-HUMAN MAMMALS COMPRISING ONE OR MORE SGLT-2 INHIBITORS AND PIMOBENDAN AND/OR TELMISARTAN” (BOEHRINGER INGELHEIM VETMEDICA GMBH, priority 2023, published 2024).

How the values were obtained:
[1] = tested on: canine atrial fibrillation model; conditions: cited from earlier work
[2] = tested on: Dogs With Mitral Valve Disease (MVD); assay: Example 16 exploratory clinical field trial, velagliflozin plus pimobendan vs pimobendan; format: in vivo, dog
Procedure: The described study is a prospective, baseline controlled, unblinded, open-label, multi-site exploratory clinical field trial. Client owned dogs diagnosed with MVD are randomized at different sites to either a pimobendan or a velagliflozin plus pimobendan treatment group. Eight dogs could be successfully enrolled. […] The clinical field trial is further ongoing.
The dogs that enter the study are evaluated regularly including a full physical examination including bodyweight, blood pressure, auscultation of the cardiovascular system, thoracic radiographs to assess heart size, pulmonary edema and congestion, standard echocardiography, ECG, blood and urine evaluation.
The cardiovascular history is evaluated assessing the date of MVD diagnosis and whether there is a history of heart failure. An owner questionnaire is compiled on a regular basis during the study to provide an overview on the overall condition of the dogs, the respiratory rate per minute at resting and the exercise tolerance during the last seven days of treatment.
The dogs included must be diagnosed with MVD stage B2 or stage C via physical examination and echocardiography. Variables of interest are all clinical parameters evaluated in addition to laboratory values, blood pressure, number of events (death or hospitalization for heart failure or euthanasia), the time-to-event duration, the adjustment of diuretic treatment, owner questionnaire data, x-ray results and overall disease progression (requiring additional, prohibited cardiac treatment).
During the ongoing field trial three dogs are receiving a combined velagliflozin (0.5 mg/kg bodyweight orally once daily) and pimobendan treatment (daily dose of 0.5 mg/kg bodyweight orally divided into two portions that are not necessarily equal).
During the ongoing field trial four dogs are receiving a pimobendan only treatment (daily dose of 0.5 mg/kg bodyweight orally divided into two portions that are not necessarily equal).

[3] = tested on: dogs with a moderate degree of tachypacing-induced heart-failure [dilated cardiomyopathy (DCM) model]; assay: Example 17 laboratory study (DCM model); format: in vivo, beagle dogs; conditions: for creatinine levels / enhancements of diastolic function and performance (i.e., IVRT, E, E′-ave) / enhancements of values indicative of systolic function and performance (i.e., EF, FAS, Simpson EF, s′ wave, LVOT VTI, SV, CO, or SAX Strain) / urine glucose: tachypacing DCM model, three-month dosing
Procedure: A laboratory study is conducted to evaluate the effects of the SGLT2 inhibitor Velagliflozin with Pimobendan compared to Pimobendan alone and Velagliflozin alone in dogs with a moderate degree of tachypacing-induced heart-failure [dilated cardiomyopathy (DCM) model]. The study involves 12 beagle dogs, divided into three treatment groups, each containing four dogs, in two dosing phases (totaling eight dogs per group). The treatment groups are Pimobendan, Velagliflozin, and a combination of both (Pimobendan+Velagliflozin).
The dogs are implanted with a pacing generator in the right ventricle (Abbott-Johnson K et al., 2021) and subjected to two rounds of dosing for three months each. The heart failure is induced to a moderate degree (EF=˜40-45%) before the start of each dosing round, with the pacing rate maintained throughout the three-month dosing period. After each round, a washout period of about 21-28 days is given before the next round of dosing begins.
Various data are collected throughout the study, including 6-minute walk test, blood and urine analysis, and echocardiography data. The dogs undergo an anesthetized recovery procedure at the end of each three-month round, where systemic hemodynamics are recorded. A single dose of dobutamine is also administered to measure functional reserve at the end of each 3-month period.

[4] = tested on: adults with heart failure and reduced or preserved ejection fraction, with and without diabetes; conditions: cited from earlier work
[5] = tested on: non-diabetic heart failure; conditions: by enhancing myocardial energetics; cited from earlier work
[6] = tested on: mitral regurgitation-induced myocardial dysfunction; conditions: cited from earlier work

For `Cc1ccc([C@@H]2O[C@H](CO)[C@@H](O)[C@H](O)[C@H]2O)cc1Cc1ccc(-c2ccc(F)cc2)s1` [canagliflozin, Canagliflozin], the atrial remodeling [1] is listed as “suppresses”.
For `COc1ccc(-c2nc3cc(C4=NNC(=O)CC4C)ccc3[nH]2)cc1` (stereo not shown) [pimobendan, 4,5-dihydro-6-[2-(4-methoxyphenyl)-1H-benzimidazol-5-yl]-5-methyl-3(2H)-pyridazinone], the MINE score ([2]; pimobendan only (0.5 mg/kg/day), first dog, Day 88, before: seven, progresses from moderate to severe disease state) was “eight”, the “other parameters measured (i.e. heart murmur)” value ([2]; pimobendan only, first dog) was “mainly unchanged” and the “Echo Parameter LA/Ao” value ([2]; pimobendan only, fourth dog, Day 42, Screening 1.88) was 1.61. The MINE score ([2]; pimobendan only, fourth dog, Day 42, Screening: eight) was “six”, the “overall condition (owner score)” value ([2]; pimobendan only, fourth dog, Day 42, Screening: neutral) was “good” and the “exercise tolerance in the last 7 days (owner score)” value ([2]; pimobendan only, fourth dog, Day 42, Screening: very poor) was “good”. The “overall condition and exercise tolerance in the last 7 days (owner report)” value ([2]; pimobendan only, second dog) was “improvement”, the “Echo-Parameter LA/Ao” value ([2]; pimobendan only, second dog, Day 55, Screening 2.14) was 1.96 and the “MINE score (echocardiographic parameters)” value ([2]; pimobendan only, second dog, Day 55, stable, severely diseased) was “eight”. The “Echo-Parameter LA/Ao” value ([2]; pimobendan only, third dog, Day 48, Screening 1.60) was 1.53, the “overall condition of the owner score” value ([2]; pimobendan only, third dog, Day 48, Screening: neutral) was “good” and the “functional support with enhanced systolic and diastolic performance” value ([3]; for three months) was “clear and robust functional support”. The creatinine levels [3] was “does not affect”, the “enhancements of diastolic function and performance (i.e., IVRT, E, E′-ave)” value [3] was about 20% and the “enhancements of values indicative of systolic function and performance (i.e., EF, FAS, Simpson EF, s′ wave, LVOT VTI, SV, CO, or SAX Strain)” value [3] was about 30%. For the same compound, the urine glucose [3] was “does not affect”.
In the case of `OC[C@H]1O[C@@H](c2ccc(Cl)c(Cc3ccc(O[C@H]4CCOC4)cc3)c2)[C@H](O)[C@@H](O)[C@@H]1O` [empagliflozin, Empagliflozin], the “risk for the composite endpoint of cardiovascular death or hospitalization due to heart failure” value [4] is listed as “reduced” and the “adverse left ventricular remodeling” value [5] is listed as “ameliorates”.
For `CCOc1ccc(Cc2cc([C@@H]3O[C@H](CO)[C@@H](O)[C@H](O)[C@H]3O)ccc2Cl)cc1` [dapagliflozin, Dapagliflozin], the arrhythmogenesis [6] is listed as “mitigates” and the cardiac hemodynamics [6] is listed as “improves”.
For `N#Cc1ccc([C@@H]2O[C@H](CO)[C@@H](O)[C@H](O)[C@H]2O)cc1Cc1ccc(C2CC2)cc1` [velagliflozin, Velagliflozin], the creatinine levels [3] was “lower”, the “enhancements of diastolic function and performance (i.e., IVRT, E, E′-ave)” value [3] was “little-to-no support” and the “enhancements of values indicative of systolic function and performance (i.e., EF, FAS, Simpson EF, s′ wave, LVOT VTI, SV, CO, or SAX Strain)” value [3] was “little-to-no support”. The urine glucose [3] was “elevated”.
